Experimental data reported in patent US8680047B2, “Fas peptide mimetics and uses thereof” (The Trustees of the University of Pennsylvania, priority 2002, dated 2014).
Positions of bridges follow the written chain, without caps; N, C: chain ends. Residues, ends and D or L forms follow the SMILES beside them. No end group written: not given here.

Experiments:
[1] = system: Con A-induced hepatitis model; assay: Con A-induced hepatitis model, serum transaminase activity; assay type: in vivo, C57BL/6 mice; settings: IP pretreatment 30 min before Con A iv
Protocol: The biological activity of mimetic Kp7-6 was measured in vivo. FasL induced apoptosis is one of the primary and dominant pathways by which liver cells undergo apoptosis under various conditions such as viral infection, drug toxicity and other lesions. (Kakinuma, C. et al. Toxicol Pathol 27, 412-420 (1999); Famularo, G., et al. Med Hypotheses 53, 50-62 (1999); Gantner et al. supra). […] (Zhang, H. et al. Nat Biotechnol 18, 862-867 (2000); Song, E. et al. Nat Med (2003)). The antagonistic effect of Kp7-6 in vivo was tested using the Con A-induced hepatitis model. C57BL/6 mice were pretreated intraperitoneally (IP) with anti-FasL monoclonal antibody, Fas mimetic peptides or saline. After 30 min, animals were challenged intravenously with Con A or saline. The induction of liver damage and inflammatory hepatitis was evaluated by measuring the serum activities of alanine aminotransferase (ALT) and aspartate aminotransferase (AST) 12 h after Con A treatment.
Administration of Con A and Measurement of Serum Transaminase Activity. […]
Blood samples were collected from mice at 12 h after Con A injection, and the serum was taken by centrifugation. Serum activities of alanine aminotransferase (ALT) and aspartate aminotransferase (AST) were measured by Lippi-Guidi's method (Iatrozyme TA-LQ: Dia-Iatron Inc., Tokyo, Japan). […]

[2] = system: FasL-sensitive Jurkat cells; assay: FasL-induced cytotoxicity assay in Jurkat cells ([3H]-thymidine incorporation); assay type: cell-based, human; settings: for inhibition of Fas-mediated cytotoxicity: Jurkat cells stimulated with soluble FasL-Flag, various concentrations of mimetic
Protocol: To evaluate the effect of mimetics on Fas-mediated cytotoxicity, FasL-sensitive Jurkat cells were stimulated with soluble FasL-Flag fusion protein in the presence or absence of various concentrations of mimetics. The inhibitory effects of mimetics on Fas-mediated cytotoxicity were consistent with the results of the FasL-binding inhibition (FIG. 4). […] A concentration of 1 mM Kp7-6 protected more than 90% cells from Fas-mediated cytotoxicity (FIG. 4). […] Large dose of Kp7-6 was used in this experiment for better signal-to-noise ratio. To determine if mimetics derived from other binding sites would potentially be able to interact synergistically to block the Kp7 surface, Kp7 was used in combination with mimetics.
Cytotoxicity assay. Twenty microliters of Jurkat cells at 1×10^5 cells/ml were plated in 96-well U-bottom plates. FasL-Flag (120 ng/ml in culture medium) was preincubated with equal volume of peptide sample in PBS for 1 h at 37° C., and 20 μl of mixture was added to each well. After an incubation period of 24 h, each culture was pulsed with 1 μCi of [^3H]-thymidine for 24 h before harvesting on glass fiber filters. Incorporation of the ^3H-thymidine obtained with culture medium alone and with 30 ng/ml of FasL was used as reference for 100% survival and 0% survival, respectively. Survival (%) by several doses of peptides was plotted. Incorporation of the radioactive label was measured by liquid scintillation counting (Wallac, Finland) and expressed as the arithmetic mean counts per minute (cpm) of triplicate cultures.

FasL = biological target: T1, FasL (Homo sapiens, UniProt P48023); assay: Surface plasmon resonance (BIAcore) analysis, immobilized FasL-Flag; assay type: binding; settings: FasL-Flag immobilized on sensor chip, 25° C.
T1 construct: Flag-tagged soluble human Fas ligand (FasL-Flag); purchased Kamiya Biomedical (Seattle, Wash.)
T1 sequence (P48023 130-281 limits assumed): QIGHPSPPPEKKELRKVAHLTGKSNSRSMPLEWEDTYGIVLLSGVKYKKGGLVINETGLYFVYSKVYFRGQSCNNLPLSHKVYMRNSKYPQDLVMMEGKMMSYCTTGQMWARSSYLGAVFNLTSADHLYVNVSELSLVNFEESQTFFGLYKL
Protocol: The kinetics of binding of Kp7-6, which mediated the best inhibitory activity to FasL, was performed using surface plasmon resonance (BIAcore™) analysis. […] The koff value is considered as an important indicator in the development of therapeutics with biological activity (Benveniste, M. et al. Br J Pharmacol 104, 207-221 (1991); Yiallouros, I. et al. Biochem J 331, 375-379 (1998)), and generally correlates with potent biological effects. (Moosmayer, D. et al. J Interferon Cytokine Res 16, 471-477 (1996)). […] (Berezov, A. et al. J Med Chem 44, 2565-2574 (2001)).
To assess the specificity of Kp7-6 binding interaction, Fas, FasL and TNFα were immobilized on a sensor chip. Kp7-6 bound to FasL but not to TNFα, which indicates Kp7-6 bound to FasL specifically (FIG. 3B). […] (Naismith, J. H. et al. Structure 4, 1251-1262 (1996)).
Biosensor analysis. All experiments were carried out on a BIAcore 3000 instrument (Biacore AG, Uppsala, Sweden) at 25° C. using PBS, pH 7.4, containing 0.005% surfactant P20 (Biacore AG) as the running buffer. FasL-Flag, Fas-Fc or TNFRI-Fc was immobilized on research-grade CM5 sensor chips (Biacore AG) using standard N-ethyl-N-dimethylaminopropyl carbodiimid/N-hydroxysuccinimide coupling. […] Data were analyzed with the BIA evaluation 3.0 software (Biacore AG). […]

Row | Compound | block of Con A-induced hepatic injury [1] | inhibition of Fas-mediated cytotoxicity [2] | other results
1 | YCNSTVCY (disulfide 2-7 (inferred)) [Kp1-1, exocyclic mimetic derived from Fas Kp1 loop] | did not block the hepatic injury |  | 
2 | YCDEQFCY (disulfide 2-7 (inferred)) [Kp7-10, exocyclic mimetic derived from Fas Kp7 loop] |  | dose-dependent inhibition | synergy in combination with members of the Kp4 mimetics ([2]; Fas-mediated cytotoxicity, data not shown): Neither Kp7-6 nor Kp7-10 used in combination with members of the Kp4 mimetics showed any significant synergy
3 | N[C@@H](Cc1ccc(O)cc1)C(=O)N[C@H]1CSSC[C@@H](C(=O)N[C@@H](Cc2ccc(O)cc2)C(=O)O)NC(=O)[C@H](Cc2ccccc2)NC(=O)[C@H](Cc2c[nH]cn2)NC(=O)[C@H](CCC(=O)O)NC(=O)[C@H](CC(=O)O)NC1=O [Kp7-6, YCDEHFCY] (H-YCDEHFCY-OH; disulfide 2-7; N-terminus and C-terminus assumed) |  | dose-dependent inhibitory activity | koff (FasL; read-out: koff rate constant): 0.000765 s⁻¹; kon (FasL; read-out: kon rate constant): 68.5 M⁻¹ s⁻¹; cells protected from Fas-mediated cytotoxicity ([2]; 1 mM mimetic, Jurkat cells, FasL-Flag): more than 90%
4 | YCDEHGLCY (disulfide 2-8 (inferred)) [Kp7-7, exocyclic mimetic derived from Fas Kp7 loop] | protection of mice against Con A induced liver injury |  | 
